The text below walks through data of patent US12172992B2, “Pyrimidines for degrading Bruton's tyrosine kinase” (AbbVie Inc., priority 2022, dated 2024).

One assay addresses BTK in mouse bone marrow (Mus musculus (Mouse), UniProt P35991). Description: Mouse Bone Marrow Assay (MSD ELISA of BTK degradation in bone marrow). It counts as in vivo. As to conditions: female C57BL/6J mice, single dose of Dose A, bone marrow collected after 24 hours. The procedure: Female C57BL/6J mice (Jackson Laboratories) were used for this study. Compounds or vehicle/control were prepped with EtOH; PEG-400; Phosal 53 MCT (10:30:60, v/v). Four mice were tested per compound or vehicle/control. On Day 1, mice were administered a single dose of Dose A. On Day 2 (after 24 hours), tissue (bone marrow) was collected from one hind leg per mouse.
An MSD (Meso Scale Discovery) ELISA (enzyme-linked immunosorbent assay) based assay was used to determine BTK degradation in mouse bone marrow. The following materials and equipment were used: 10% NP40 solution (nonionic polyoxyethylene surfactant, ThermoFisher, cat no. 28324); protease inhibitor mini tablet (Roche, cat no. 05 892 970 001); PhosphoSTOP™ tablet (Roche, cat no. 04 906 837 001); Pierce™ BCA Protein Assay Kit (Thermofisher, Cat No. 23225); Precellys® 2 mL lysing tube with 2.8 mm beads (VWR, cat no. 10032-756); Bertin Precellys® 24/Cryolys® cooling system; 96-well MSD streptavidin pre-coated plates (MSD, cat no. L15SA-1); MSD Blocker A (MSD, cat no. R93BA-4); capture antibody, biotinylated BTK mAb (BD Biosciences, cat no. 624008; custom order); primary detection antibody, BTK RpAb (rabbit polyclonal antibody, CST, cat no. 8547S, D3H5 clone); secondary detection antibody, anti-Rabbit-Sulfo-Tag (MSD, cat no. R32AB-1); read Buffer, 4× (MSD, cat no. R92TC-1); recombinant BTK protein (Thermofisher, cat no. PR5442A); MSD Tris Wash Buffer (10×) (MSD, cat no. R61TX-1); PBS (phosphate-buffered saline); deionized water (diH2O); Lysis Buffer [0.2% NP40 in PBS+Protease Inhibitor tablet (1 tablet/10 mL)+PhosphoSTOP tablet (1 tablet/10 mL)]; 3% MSD Blocker A [MSD Blocker A+450 mL diH2O+50 mL]; and 10×MSD Tris Wash Buffer.
Lysis buffer [(PBS+0.2% NP40+PI (protease inhibitor)+PhosphoSTOP)] was prepared and put on ice until it was fully cold. Ice cold lysis buffer […] was added to each Precellys® tube containing beads and bone marrow sample. Sample tubes were transferred into Precellys® machine and homogenized using 5000 rpm—2×20 seconds. The sample lysates were centrifuged at 14,000 rpm for 20 minutes at 4° C. after homogenizing.
The protein concentration was determined using Pierce™ BCA Protein Assay Kit following manufacturer's recommended protocol. The protein normalized working solution was prepared, using 30 μg protein per sample lysate for assay.
A 300 ng/ml working stock solution of recombinant BTK protein in lysis buffer was prepared, and the sample was serially diluted at 3-fold dilution (10-point assay, highest concentration was 300 ng/mL and lowest concentration was 0.015 ng/mL)
MSD plate coating: Coating antibody (biotinylated-BTK mAb) stock solution was prepared at 1 μg/mL in PBS buffer. 50 μL/well capture antibody (Biotinylated BTK mAb) solution was added, and the plates were shaken gently at ambient temperature for two hours. The plates were washed 3 times with 1×MSD Tris Wash Buffer in a plate washer (300 μL/well), and the plates were blocked with 3% MSD Blocker A (150 μL/well). The plates were incubated for an additional 1-2 hours at ambient temperature with gentle shaking. The plates were washed 3 times with 1×MSD wash buffer using plate washer. Bone marrow lysates (30 μg) at a final volume of 50 μL/well were added into the plates. The serially diluted standard samples were added to the same plates at a final volume of 50 μL/well. The plates were incubated overnight at 4° C. with gentle shaking.
The plates were washed three times with 1×MSD wash buffer (prepared from 10× concentration buffer) using plate washer. Primary detection antibody at 50 μL/well was added (BTK RpAb; 1:1000 dilution in 1% MSD Blocker A). The plates were incubated for two hours at ambient temperature with gentle shaking. The plates were washed three times with 1×MSD wash buffer using plate washer. Anti-Rabbit-SULFO-TAG secondary antibodies (50 μl/well) were added, 1:500 diluted in 1% MSD Blocker A, and the plates were incubated for one to two hours at ambient temperature. […]

Assay [1] concerns TCL1-driven CLL bearing BTK^C481S mutation. In words: TCL1-driven CLL bearing BTK C481S mutation in C57BL/6 mice, circulating leukemia burden. The class given is in vivo, mouse. The source says:
EIA-TCL1 CLL transgenic mice (Crogen Pharmaceuticals LLC) were crossed with BTK^C481S knock-in mice (AbbVie) to generate Eμ-TCL1 transgenic mice carrying the BTK^C481S mutation. The leukemic splenocytes from these BTK^C481S Eμ-TCL1 transgenic mice (Passage 1) were transplanted intravenously into C57BL/6 mice, leading to CLL development in the peripheral blood and spleen. When circulating CLL burden (CD5+CD19+ cells as described below) in the recipient mice reached over 90%, their splenocytes (Passage 2) containing high CLL burden were cryopreserved and used for CLL efficacy studies. […]
To determine the absolute/total leukocyte numbers, complete blood counts were determined for each mouse using the Genesis™ veterinary hematology analyzer (Oxford Science Inc.).
Cells isolated from murine peripheral blood mononuclear cells (PMBCs) were collected to determine antigen expression. […] Cells were gated on CD45+, and thereafter the percentage of cells that were CD5+CD19+ from that subset was calculated. […]
Whole blood was collected weekly post tumor implantation via submandibular cheek bleeding. Circulating leukemic burden was calculated by multiplying absolute/total leukocyte count with the percentage of the leukocytes have the immunophenotype CD19^+CD5^+. […]

Sequence of BTK in mouse bone marrow (P35991 whole entry): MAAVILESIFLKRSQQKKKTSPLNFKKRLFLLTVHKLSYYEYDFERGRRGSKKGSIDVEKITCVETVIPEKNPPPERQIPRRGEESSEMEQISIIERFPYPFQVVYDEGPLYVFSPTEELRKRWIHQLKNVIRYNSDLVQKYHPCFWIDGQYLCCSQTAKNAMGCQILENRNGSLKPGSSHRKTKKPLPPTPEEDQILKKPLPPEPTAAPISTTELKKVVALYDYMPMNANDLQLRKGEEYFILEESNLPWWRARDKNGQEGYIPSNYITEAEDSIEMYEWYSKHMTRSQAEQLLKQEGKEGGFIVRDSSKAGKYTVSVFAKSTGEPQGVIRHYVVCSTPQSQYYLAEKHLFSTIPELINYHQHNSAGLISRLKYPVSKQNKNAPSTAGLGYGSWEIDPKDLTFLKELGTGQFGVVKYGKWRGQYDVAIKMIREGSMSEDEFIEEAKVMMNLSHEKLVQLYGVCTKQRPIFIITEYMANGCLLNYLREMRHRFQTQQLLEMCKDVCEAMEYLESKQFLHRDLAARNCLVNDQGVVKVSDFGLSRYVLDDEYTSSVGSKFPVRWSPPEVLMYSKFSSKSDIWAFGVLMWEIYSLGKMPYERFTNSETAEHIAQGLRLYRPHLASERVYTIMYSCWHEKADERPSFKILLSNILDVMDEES

As to `Cc1cc(-c2cc(Nc3ccc(N4CCN(CCc5ccc(N6CCC(=O)NC6=O)cc5)C[C@@H]4C)cn3)ncn2)ccc1[C@@H](C)NC(=O)c1nc(C(C)(C)C)no1` [Example 1, 3-tert-butyl-N-[(1R)-1-{4-[6-({5-[(2S)-4-{2-[4-(2,4-dioxo-1,3-diazinan-1-yl)phenyl]ethyl}-2-methylpiperazin-1-yl]pyridin-2-yl}amino)pyrimidin-4-yl]-2-methylphenyl}ethyl]-1,2,4-oxadiazole-5-carboxamide], the “Mouse Bone Marrow (%) (% remaining BTK, vehicle versus treated)” value on BTK in mouse bone marrow is 11%. Also, the “CLL burden control (no increase from the initial tumor burden)” value in assay [1] (QD for 19 days, at Dosage 3 and Dosage 4) is reported as “Complete CLL burden control”. For the same molecule, the “circulating leukemia burden (CD19+CD5+ CLL cells per μL)” value in assay [1] (once daily (QD) for 19 days, Dosage 1-4, FIG. 1) is “controlled circulating leukemia burden of the TCL1-driven CLL bearing BTK^C481S mutation in C57BL/6 mice in a dose-dependent manner”.
